Measurements as given in patent US20090076067A1, “PHARMACEUTICAL COMPOSITION COMPRISING AZARHODACYANINE COMPOUND AS ACTIVE INGREDIENT” (priority 2005, published 2009).
Converted amounts (≈) assume the structure as drawn. Like-named read-outs stand apart in the source and are kept apart here. Each block holds one compound with its values, some of them ahead of it.

Key:
[1] = system: Trypanosoma cruzi (Tulahuen C2C4 strain); assay: American trypanosoma protozoa proliferation inhibition screening test; format: cell-based; settings: Tulahuen C2C4 strain in rat L6 cells, 96 hours, CPRG/Nonidet
Procedure: In this experiment, amastigote and trypomastigote of Trypanosoma cruzi (Tulahuen C2C4 strain) infected to rat L6 cells were used. The medium used in the experiment was prepared as follows: to RPMI 1640 medium containing L6 cells, L-glutamine (200 mM) and fetal bovine serum was added to achieve concentration of 1% and 10%, respectively. The culture was conducted under CO2 concentration 5% and temperature 37° C.
Either the compound of the invention or a positive control (benznidazole) was dissolved into DMSO to prepare test solution having predefined concentration. To each well in a 96-well culture plate, medium containing 5×10^3 protozoa was added and precultured for 48 hours. After replacing the medium, either the test solution containing compound of the invention in predefined concentration or DMSO without compound was added. The test solution was duplicated.
The plate was cultured in an incubator for 96 hours, and the proliferation inhibition activity was examined. The activity was determined as follows. To each well, 50 μL CPRG/Nonidet was added, then left for 2 to 6 hours. Then the culture plate was mounted on an absorption microplate reader to determine absorption at 540 nm. The trypanosoma infection rate of the sample containing the test compound and that of the control sample was calculated.
(§1) Using the protozoa infection rate thus obtained, the proliferation inhibition rate was calculated according to the following equation to determine 50% proliferation inhibition concentration (EC50).
(§2) Proliferation inhibition rate(%)={1−(b−a)/(c−a)}×100
(§3) a: initial infection rate b: infection rate of the test compound solution c: infection rate of the control

[2] = system: Plasmodium Falciparum k1 strain; assay: Chloroquine-resistant tropical malaria protozoa proliferation inhibition screening test; format: cell-based; settings: for Selective toxicity: EC50 rat L6 cells / EC50 Chloroquine-resistant malaria protozoa; for EC50: Plasmodium falciparum
Procedure: In this experiment, Plasmodium Falciparum k1 strain protozoa were used. The medium used in the experiment was filter-sterilized RPMI-1640 medium. To the medium human serum was added to achieve 5% concentration. The protozoa was cultured under condition of O2 concentration 3%, CO2 concentration 4%, N2 concentration 93%, and temperature 37° C.
The cultured malaria infected red blood cells were collected by centrifugation, diluted with non-infected red blood cells, to achieve initial infection rate 0.15%. The hematocrit was 2.5%.
To each well in a 96-well culture plate, 200 μL malaria infected culture was added, and either test solution containing test compound at predefined concentration or DMSO having no test compound was added. Each test solution was prepared in duplicate. After 48 hours culture under 37° C., hypoxanthine labeled with radioactive tritium (^3H) of 0.5 μCi was added to each well. After culturing under same condition for 24 hours, the product was collected on a glass fiber filter and washed. The intensity of radiation was measured by Beta plate liquid scintillation counter (Wallac Inc.), to determine malaria protozoa infection rate in test compound samples and control samples.
Using the malaria protozoa infection rate, the proliferation inhibition rate was calculated according to the following equation to determine 50% proliferation inhibition concentration (EC50).
as §2
(§4) a: initial infection rate b: infection rate of test compound solution c: infection rate of the control

[3] = Rat L6 cell proliferation inhibition test; format: cell-based; settings: read-out: EC50 cytotoxicity L6
Procedure: (§5) Rat-derived L6 cells (rat skeletal myoblast cell) were used for this test. […] The sample was cultured under CO2 concentration 5% and temperature 37° C. Either the composition of the invention or control was dissolved into DMSO, to prepare test solutions having predefined concentration.
(§6) The samples were precultured until logarithmic growth phase was reached. Then the culture was transferred to each well in a 96-well culture plate, and either test solution containing test compound at predefined concentration or DSMO without compound was added. The test solution was duplicated.
(§7) The plate was cultured in an incubator for 72 hours, to examine proliferation inhibition activity. The activity was examined as follows. Alamar Blue water solution 10 μL was added to each well, and culture was continued for 2 hours. Next, the culture plate was mounted on a fluorescence microplate reader (Spectramax Gemeni XS; Molecular Devices Corporation, U.S.), and irradiated with excitation wavelength 536 nm to determine fluorescence at 588 nm. The survival rate of L6 cells in the test solution sample and control sample was calculated.
(§8) Proliferation inhibition rate(%)={(C−A)/(B−A)}×100
(§9) A: Initial cell count B: Cell count in control after 3 days C: Cell count in test solution after 3 days

[4] = system: Rat-derived L6 cells (rat skeletal myoblast cell); assay: Rat L6 cell proliferation inhibition test; format: cell-based; settings: Alamar Blue
Procedure: as §5, §6, §7, §8, §9

[5] = system: Trypanosoma brucei rhodensiense (STIB 900 strain); assay: African trypanosoma protozoa proliferation inhibition screening test; format: cell-based; settings: for EC50 Trypanosoma brucei rhod.: STIB 900 bloodstream form, 72 hours, Alamar blue
Procedure: In this experiment, bloodstream form trypomastigote of Trypanosoma brucei rhodensiense (STIB 900 strain) was used. The medium used in the experiment was prepared as follows: to filter-sterilized MEM medium, 25 mM N-2-hydroxyethylpiperazine-2-ethane sulfonate (HEPES), 1 g/L glucose, 1% MEM nonessential amino acid, 0.2 mM 2-mercaptoethanol, 2 mM pyruvic calcium salt, 0.1 mM hypoxanthine, and 15% heat-treated horse serum were added. The protozoa was cultured under atmosphere of CO2 concentration 5% and temperature 37° C.
Either the compound of the invention or a positive control (melarsoprol) was dissolved into dimethylsulfoxide (DMSO) to prepare test solution having predefined concentration. To each well in a 96-well culture plate, medium containing 8×10^3 protozoa, and either test solution containing the test compound at predefined concentration or DMSO without compound was added. Then medium was added to achieve 100 μL. The test solution was duplicated.
The culture plate was cultured in an incubator for 72 hours, and the proliferation inhibition activity was examined. The activity was determined as follows. To each well, 10 μL Alamar blue water solution was added, then the plate was again cultured for 2 hours. Then the culture plate was mounted on a fluorescence microplate reader (Spectramax Gemeni XS; Molecular Devices Corporation, U.S.), and irradiated with 536 nm excitation wavelength to determine fluorescence at 588 nm. The trypanosoma infection rate of the sample containing the test composition and that of the control sample was calculated.
as §1, §2, §3

[6] = system: Plasmodium berghei NK 65 strain; assay: animal or person; format: in vivo; settings: for Survival days (mean survival days, treatment group minus control group) / Recovery Rate (suppression): dose 25 mg/kg/d intraperitoneally, 4 days; for Recovery Rate (suppression): P. berghei infected ICR mice
Excerpt: For a test to evaluate therapeutic effect of the compound, 4-day suppressive test which is commonly used for in vivo test to evaluate activity of anti-malaria compound was used. In this experiment, rodent malaria protozoa (Plasmodium berghei NK 65 strain) were used. The infected blood was collected from 5-weeks age (SPF) ICR strain male mouse which were infected intraperitoneally and successively cultured. From the caudal vein of the infected mouse, blood was collected to calculate infection rate. After confirming that infection rate was adequately elevated (10% to 20% infection), the malaria infected blood was collected from the heart of the mouse. The infection rate and count of the red blood cells (cells/mL) were calculated. The infected red blood cell was diluted with PBS buffer to achieve […] protozoa per 0.2 mL dose. The infected cells were injected to the caudal vein of uninfected mouse (ICR strain, male, 5-weeks age) to cause infection. Five mice were made into one group, and the test compound was administered in predefined concentration. From 2 hours after infection, the compound was administered every 24 hours for straight 4 days.
The compound of the invention to be used in this test was dissolved in saline (Otsuka Pharmaceutical Co., Ltd.) to obtain test solution of predefined concentration. When the compound was not dissolved in saline, it was dissolved in SSV (saline containing 0.5% sodium=carboxymethyl cellulose, 0.5% benzyl alcohol, 0.4% Tween 80) to prepare test solution. For the control group (non-treatment group), only saline (Otsuka) was administered. Positive controls S-1 to S-5 were dissolved in saline (Otsuka) or SSV in predetermined concentration to prepare test solution. When the compound was not dissolved in saline, it was dissolved in SSV. After measuring weight of each mouse, the dose for each mouse was calculated to achieve 5.0 to 40 mg concentration for weight1 kg.
Five mice were made into one group, and the test compound was administered intraperitoneally at predefined concentration. From 2 hours after infection, the compound was administered every 24 hours for straight 4 days. Subsequent to the 24 hours after last treatment, blood was collected from the tail of the mouse to prepare thin layer smear in order to count malaria protozoa infection in the treatment group and the control group under microscope. The mice showing maximum value and minimum value were excluded from the average calculation (average was calculated for three mice), to determine malaria protozoa infection rate (Parasitemia).
Using malaria protozoa infection rate thus calculated, recovery rate obtained from the test compound (suppression) was determined.
Recovery rate: suppression(%)=(b−a)/b×100 a: Protozoa infection rate in the treatment group b: Protozoa infection rate in the control group Mean survival days: MSD(day)=c−d c: Average days from the initial treatment (date of malaria infection) to the date of death for the treatment group (5 mice) d: Average days from the date of malaria infection to the date of death for the non-treatment (control) group (5 mice) […]
Tables 5 to 7 illustrate the recovery rate (%) and survival days (day) of malaria infected mice treated with intraperitoneal injection of the test compound and the control compound at predefined concentration. The meaning of symbols in the table is as follows.

[7] = system: Leishmania donovani (MHOM/ET/67/L82 strain); assay: Leishmania protozoa proliferation inhibition screening test; format: cell-based; settings: amastigote, 72 hours, Alamar blue
Procedure: In this experiment, Leishmania donovani (MHOM/ET/67/L82 strain) was used. The protozoa were successively cultured in Syrian Golden hamsters to obtain amastigote. The medium used in the experiment was SM medium having heat-treated fetal bovine serum 10% added, and pH prepared to 5.4. The culture was conducted under CO2 concentration 5% and temperature 37° C.
Either the compound of the invention or a positive control (miltefosine) was dissolved into DMSO to prepare test solution having predefined concentration. To each well of a 96-well culture plate, medium containing predetermined number of protozoa was added and the culture was pre-treated. The concentration of amastigote was determined by CASY cell analyze system (Scharfe GMBH Co., Germany). Subsequently, either test solution containing compound of the invention in predefined concentration or DMSO without compound was added. The test solution was duplicated.
The plate was cultured in an incubator for 72 hours, and the proliferation inhibition activity was examined. The activity was determined as follows. To each well, 10 μL Alamar blue aqueous solution was added, then cultured again for 2 hours. Then the culture plate was mounted on a fluorescence microplate reader (Spectramax Gemeni XS; Molecular Devices Corporation, U.S), and irradiated 536 nm excitation wavelength to determine […] at 588 nm. The leishmania infection rate of the sample containing the test compound and that of the control sample was calculated.
as §1, §2, §4

[8] = chloroquine-resistant K1 strain, 3H-hypoxanthine uptake, read-out: EC50 P. falciparum K1
[9] = L6 cells (rat skeletal myoblasts), Table 1, Alamar Blue
[10] = chloroquine-resistant K1 strain, 3H-hypoxanthine uptake

SMILES: O=C(Cn1ccnc1[N+](=O)[O-])NCc1ccccc1 [Benznidazole, reference compound]
EC50 ([1]; Trypanosoma cruzi, read-out: EC50 Trypanosoma cruzi): 0.87 µg/mL (≈ 3.34 µM)

SMILES: CCN(CC)CCCC(C)Nc1ccnc2cc(Cl)ccc12 (stereo not shown) [Chloroquine, reference compound]
Selective toxicity [2]: 1300 | EC50 ([2]; K1, read-out: EC50 P. falciparum K1): 0.047 µg/mL (≈ 0.147 µM) | EC50 at 72 h ([3]; Table 1, rat L6 cells, Alamar Blue): 60 µg/mL (≈ 188 µM)

SMILES: CCN1C(=O)/C(=c2\nc3c(s2)=CC=CN3C)S/C1=N\c1cccc[n+]1C.[Cl-] [Compound A-22]
Selective toxicity [2]: >782 | EC50 [2, 8]: 0.0115 µg/mL | EC50 at 72 h [3, 9]: > 90 µg/mL

SMILES: CCn1c(=O)/c(=c2\nc3c(o2)=CC=CN3C)s/c1=C1\S/C(=N\c2scc[n+]2C)N(Cc2ccccc2)C1=O [Compound B-22]
EC50 P. falciparum K1 [2, 10]: 0.005 µg/mL | EC50 cytotoxicity L6 ([4]; Table 1, 72 hours): >90 µg/mL | EC50 Trypanosoma brucei rhod. [5]: 0.068 µg/mL | Survival days (mean survival days, treatment group minus control group) [6]: 9.0 days | Recovery Rate (suppression) [6]: 72.4%

SMILES: CCN1C(=O)/C(=c2/s/c(=C3/C=CC=CN3C)c(=O)n2CC)S/C1=N\c1sc2cc(F)ccc2[n+]1C [Compound B-32]
EC50 P. falciparum K1 [2, 10]: 0.0162 µg/mL | EC50 cytotoxicity L6 ([4]; Table 1, 72 hours): 15.88 µg/mL | EC50 cytotoxicity L6 ([4]; Table 2, 72 hours): 15.88 µg/mL | EC50 cytotoxicity L6 ([4]; Table 4, 72 hours): 15.88 µg/mL | EC50 Trypanosoma brucei rhod. [5]: 0.1585 µg/mL | EC50 Leishmania donovani [7]: 0.2195 µg/mL | Survival days (mean survival days, treatment group minus control group) [6]: 4.8 days | Recovery Rate (suppression) [6]: 79.5%

SMILES: CCn1c(=O)/c(=C2\SCCN2C)s/c1=C1\S/C(=N\c2scc[n+]2C)N(C(C)C)C1=O [Compound B-35]
Selective toxicity [2]: 3630 | EC50 [2, 8]: 0.006 µg/mL | EC50 at 72 h [3, 9]: 21.8 µg/mL | inhibition in vivo at 25 mg/kg/day ([6]; Plasmodium berghei, ip, 96 h, read-out: Recovery Rate (suppression)): 63.5% | Survival days (mean survival days, treatment group minus control group) [6]: 3.5 days

SMILES: C=CCN1C(=O)/C(=c2/s/c(=C3/SCCN3C)c(=O)n2CC)S/C1=N\c1sc2cc(Cl)ccc2[n+]1C [Compound B-39]
EC50 cytotoxicity L6 ([4]; Table 2, 72 hours): 3.72 µg/mL | EC50 cytotoxicity L6 ([4]; Table 3, 72 hours): 3.72 µg/mL | EC50 cytotoxicity L6 ([4]; Table 4, 72 hours): 3.72 µg/mL | EC50 Trypanosoma brucei rhod. [5]: 0.141 µg/mL | EC50 Trypanosoma cruzi [1]: 0.141 µg/mL | EC50 Leishmania donovani [7]: 0.049 µg/mL | Survival days (mean survival days, treatment group minus control group) [6]: 4.5 days | Recovery Rate (suppression) [6]: 77.7%

SMILES: Nc1nc(N)nc(Nc2ccc([As]3SCC(CO)S3)cc2)n1 (stereo not shown) [Melarsoprol, reference compound]
EC50 at 72 h ([3]; Table 2, rat L6 cells, Alamar Blue): 3.1 µg/mL | Selective toxicity ([5]; EC50 rat L6 cells / EC50 African trypanosoma protozoa): 1300 | EC50 ([5]; Trypanosoma brucei, STIB900, 72 h, read-out: EC50 Trypanosoma brucei rhod.): 0.0024 µg/mL

EC50 ([7]; Leishmania donovani, read-out: EC50 Leishmania donovani): 0.11 µg/mL (≈ 0.27 µM)
SMILES: CCCCCCCCCCCCCCCCOP(=O)([O-])OCC[N+](C)(C)C [Miltefosine, reference compound]
